How the values were obtained:
EGFR = EGFR (Homo sapiens, UniProt P00533); settings: cited from earlier work
HER2/4 = settings: cited from earlier work
[1] = system: erlotinib-resistant H1975 cell line; settings: cited from earlier work
[2] = Study on stability of Crystal form I, II and III (influencing factors; character, moisture content, relevant substances by HPLC, XRPD); format: physicochemical
Experimental: The samples were tested for character, relevant substances, moisture content, XRPD pattern, etc. […] The samples were tested for relevant substances, content, character, moisture content, XRPD pattern, etc. During the study, the uncovered experimental samples were kept in cultured dishes in the air. […] During the study, the uncovered experimental samples were kept in cultured dishes in the air. […] With respect to relevant substances, in accordance with High Performance Liquid Chromatography in Appendix V D in Pharmacopoeia of the People's Republic of China (2010), the samples were determined by area normalization method. Instrument: High Performance Liquid Chromatographic Instrument (Agilent 1200/1260 series) Chromatographic column: chromatographic column using octylsilane chemically bonded silica as filler (HC-C8, 4.6×250 mm, 5 μm) Column temperature: 30° C. Detection wavelength: 230 nm Mobile phase: mobile phase consisting of 0.03 mol/L diammonium hydrogen phosphate/0.03 mol/L sodium perchlorate solution-acetonitrile, and reversed-phase gradient elution was employed. Flow rate: 1.0 mL/min Injection volume: 10 μL Method for determining moisture content: the moisture content was determined in accordance with First Method for Determining Moisture Content B (Coulometric Titration) in Appendix VIII M in Pharmacopoeia of the People's Republic of China (2010).

[3] = Evaluation on pharmacokinetics in SD rats, intragastric administration; format: in vivo; settings: 5 mg/kg
Experimental: An amorphous form of a compound of Formula (I), the preparation method of which could be found in the particular Examples as disclosed in the international patent application (Publication No. WO 2012027960 A1).
Test animal: SD rats, male, weighed 190-250 g, 6 rats for each crystal form, purchased from Beijing Vital River Laboratory Animal Technology Co., Ltd.
Administration route: intragastric administration, at an administration dose of 5 mg/kg, and an administration volume of 10 mL/kg.
Blood collection: whole blood (about 100 μL) was collected from tail vein 10 min, 30 min, 1 h, 2 h, 4 h, 6 h, 8 h, and 24 h after administration, and added to K2EDTA-containing anticoagulation tubes. The whole blood sample was centrifuged for 6 min at 4° C., 8000 rpm in a high speed centrifuge, and plasma was separated. Plasma needed to be prepared within 30 min after blood collection, and stored at −80° C. in a refrigerator.
Plasma sample analysis: the plasma samples were analyzed by protein precipitation: to plasma (20 μL), an internal standard Gefitinib (200 μL, 50 ng/mL acetonitrile solution) was added; the resultant mixture was vortexed at 500 rpm for 5 min, and centrifuged at 4000 rpm for 20 min in a high speed centrifuge; to the supernatant (100 μL), water (100 μL) was added; the resultant mixture was mixed homogeneously under vortexing and analyzed by LC-MS/MS for blood concentration.
Calculation for PK parameters: PK parameters were calculated by using Pharsight Phoenix 6.2 software.

[4] = Comparison of stability between crystal forms and amorphous form, 60° C. uncovered, relevant substances by HPLC; format: physicochemical
Experimental: Instrument: High Performance Liquid Chromatographic Instrument (Agilent 1260 series) Chromatographic column: chromatographic column using octylsilane chemically bonded silica as filler (HC-C8, 4.6×250 mm, 5 μm) Column temperature: 30° C. Detection wavelength: 230 nm Mobile phase: Mobile phase consisting of 0.06 mol/L sodium dihydrogen phosphate/0.06 mol/L sodium perchlorate solution-acetonitrile, and reversed-phase gradient elution was employed. Flow rate: 1.0 mL/min Injection volume: 10 μL

[5] = 10 days, 40° C./RH75% uncovered
[6] = influencing factor condition for 10 days

Sequence of EGFR (P00533 25-1210): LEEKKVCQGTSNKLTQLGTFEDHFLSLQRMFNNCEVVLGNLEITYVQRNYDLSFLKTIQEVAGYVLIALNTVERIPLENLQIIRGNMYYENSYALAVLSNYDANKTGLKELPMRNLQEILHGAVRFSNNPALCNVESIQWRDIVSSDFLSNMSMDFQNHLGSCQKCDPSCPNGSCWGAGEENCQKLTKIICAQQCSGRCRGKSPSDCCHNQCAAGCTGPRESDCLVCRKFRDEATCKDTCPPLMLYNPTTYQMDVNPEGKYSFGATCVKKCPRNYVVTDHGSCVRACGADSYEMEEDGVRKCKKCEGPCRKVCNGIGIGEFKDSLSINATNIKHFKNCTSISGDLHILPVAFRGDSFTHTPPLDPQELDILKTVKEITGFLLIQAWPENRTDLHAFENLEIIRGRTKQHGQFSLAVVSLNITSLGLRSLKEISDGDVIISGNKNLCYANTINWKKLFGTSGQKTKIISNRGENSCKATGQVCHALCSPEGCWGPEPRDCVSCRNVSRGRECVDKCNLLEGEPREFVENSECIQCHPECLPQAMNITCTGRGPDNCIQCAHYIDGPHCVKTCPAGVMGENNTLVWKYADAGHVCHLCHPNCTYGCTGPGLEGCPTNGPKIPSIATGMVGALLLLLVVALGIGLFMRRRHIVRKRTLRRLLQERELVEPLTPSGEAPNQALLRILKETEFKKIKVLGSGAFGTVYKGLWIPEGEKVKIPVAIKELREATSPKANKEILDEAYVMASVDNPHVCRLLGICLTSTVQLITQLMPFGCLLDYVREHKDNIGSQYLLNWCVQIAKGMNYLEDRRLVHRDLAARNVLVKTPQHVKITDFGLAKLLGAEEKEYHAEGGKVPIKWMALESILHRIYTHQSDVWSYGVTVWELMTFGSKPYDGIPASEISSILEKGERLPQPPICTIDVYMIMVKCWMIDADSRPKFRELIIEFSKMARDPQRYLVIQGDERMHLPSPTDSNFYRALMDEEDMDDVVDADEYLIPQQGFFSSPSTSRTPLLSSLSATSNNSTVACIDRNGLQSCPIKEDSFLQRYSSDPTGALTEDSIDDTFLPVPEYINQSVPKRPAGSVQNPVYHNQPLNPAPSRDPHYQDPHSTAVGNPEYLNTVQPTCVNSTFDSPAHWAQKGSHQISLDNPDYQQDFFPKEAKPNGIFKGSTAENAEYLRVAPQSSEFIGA

With `C=CC(=O)Nc1cc2c(Nc3ccc(F)c(Cl)c3)ncnc2cc1OCC1CC2(CCN(C)CC2)C1` [Formula (I), N-(4-((3-chloro-4-fluorophenyl)amino)-7-((7-methyl-7-azaspiro[3.5]nonan-2-yl)methoxy)quinazolin-6-yl)acrylamide] as the molecule, how does the “Inhibition of EGFR” value (EGFR) read?
Its value is “effectively inhibit”.

And the “Inhibition of HER2/4” value (HER2/4)?
Its value is “inhibitory effect”.

And the “Inhibition of erlotinib-resistant H1975 cell line” value [1]?
The value was “significantly inhibitory effect”.

With `C=CC(=O)Nc1cc2c(Nc3ccc(F)c(Cl)c3)ncnc2cc1OCC1CC2(CCN(C)CC2)C1` [Crystal form II, N-(4-((3-chloro-4-fluorophenyl)amino)-7-((7-methyl-7-azaspiro[3.5]nonan-2-yl)methoxy)quinazolin-6-yl)acrylamide] as the molecule, how does the Character ([2]; 0 day) read?
The Character was “light yellow”.

And the Crystal form ([2]; 0 day)?
Its Crystal form is “Crystal”.

What about the Moisture content ([2]; 0 day) of the same molecule?
Its Moisture content is 3.5%.

What about the Relevant substance ([2]; 0 day) of the same molecule?
The Relevant substance was 0.37%.

What about the Character ([2]; 5 days, 40° C./RH75% covered) of the same molecule?
The Character was “light yellow”.

What about the Crystal form ([2]; 5 days, 40° C./RH75% covered) of the same molecule?
Its Crystal form is “the same”.

And the Moisture content ([2]; 5 days, 40° C./RH75% covered)?
Its Moisture content is 3.6%.

And the Relevant substance ([2]; 5 days, 40° C./RH75% covered)?
The Relevant substance was 0.34%.

What about the Character ([2]; 5 days, 40° C./RH75% uncovered) of the same molecule?
Its Character is “light yellow”.

And the Crystal form ([2]; 5 days, 40° C./RH75% uncovered)?
The Crystal form was “the same”.

And the Moisture content ([2]; 5 days, 40° C./RH75% uncovered)?
Its Moisture content is 3.7%.

What about the Relevant substance ([2]; 5 days, 40° C./RH75% uncovered) of the same molecule?
Its Relevant substance is 0.38%.

And the Character ([2]; 5 days, 60° C. covered)?
Its Character is “light yellow”.

What about the Crystal form ([2]; 5 days, 60° C. covered) of the same molecule?
The Crystal form was “the same”.

What about the Moisture content ([2]; 5 days, 60° C. covered) of the same molecule?
The Moisture content was 3.6%.

And the Relevant substance ([2]; 5 days, 60° C. covered)?
The Relevant substance was 0.33%.

And the Character ([2]; 5 days, 60° C. uncovered)?
Its Character is “light yellow”.

And the Crystal form ([2]; 5 days, 60° C. uncovered)?
The Crystal form was “the same”.

And the Moisture content ([2]; 5 days, 60° C. uncovered)?
Its Moisture content is 3.6%.

What about the Relevant substance ([2]; 5 days, 60° C. uncovered) of the same molecule?
Its Relevant substance is 0.35%.

And the Character ([2]; 5 days, RH-75%)?
The Character was “light yellow”.

And the Crystal form ([2]; 5 days, RH-75%)?
The Crystal form was “the same”.

And the Moisture content ([2]; 5 days, RH-75%)?
Its Moisture content is 3.6%.

And the Relevant substance ([2]; 5 days, RH-75%)?
The Relevant substance was 0.35%.

And the Character ([2]; 5 days, RH-92.5%)?
The Character was “light yellow”.

And the Crystal form ([2]; 5 days, RH-92.5%)?
The Crystal form was “the same”.

What about the Moisture content ([2]; 5 days, RH-92.5%) of the same molecule?
The Moisture content was 3.7%.

What about the Relevant substance ([2]; 5 days, RH-92.5%) of the same molecule?
Its Relevant substance is 0.36%.

What about the Character ([2]; 5 days, light) of the same molecule?
The Character was “light yellow”.

What about the Crystal form ([2]; 5 days, light) of the same molecule?
Its Crystal form is “the same”.

What about the Moisture content ([2]; 5 days, light) of the same molecule?
The Moisture content was 3.7%.

And the Relevant substance ([2]; 5 days, light)?
The Relevant substance was 0.35%.

What about the Character ([2]; 10 days, 40° C./RH75% covered) of the same molecule?
The Character was “light yellow”.

And the Crystal form ([2]; 10 days, 40° C./RH75% covered)?
The Crystal form was “the same”.

And the Moisture content ([2]; 10 days, 40° C./RH75% covered)?
Its Moisture content is 3.6%.

What about the Relevant substance ([2]; 10 days, 40° C./RH75% covered) of the same molecule?
Its Relevant substance is 0.33%.

What about the Character [2, 5] of the same molecule?
Its Character is “light yellow”.

And the Crystal form [2, 5]?
The Crystal form was “the same”.

And the Moisture content [2, 5]?
The Moisture content was 3.8%.

What about the Relevant substance [2, 5] of the same molecule?
The Relevant substance was 0.33%.

What about the Character ([2]; 10 days, 60° C. covered) of the same molecule?
Its Character is “light yellow”.

What about the Crystal form ([2]; 10 days, 60° C. covered) of the same molecule?
Its Crystal form is “the same”.

And the Moisture content ([2]; 10 days, 60° C. covered)?
The Moisture content was 3.7%.

What about the Relevant substance ([2]; 10 days, 60° C. covered) of the same molecule?
The Relevant substance was 0.36%.

What about the Character ([2]; 10 days, 60° C. uncovered) of the same molecule?
Its Character is “light yellow”.

And the Crystal form ([2]; 10 days, 60° C. uncovered)?
The Crystal form was “the same”.

And the Moisture content ([2]; 10 days, 60° C. uncovered)?
Its Moisture content is 3.7%.

And the Relevant substance ([2]; 10 days, 60° C. uncovered)?
Its Relevant substance is 0.43%.

What about the Character ([2]; 10 days, RH-75%) of the same molecule?
Its Character is “light yellow”.

And the Crystal form ([2]; 10 days, RH-75%)?
Its Crystal form is “the same”.

And the Moisture content ([2]; 10 days, RH-75%)?
The Moisture content was 3.7%.

What about the Relevant substance ([2]; 10 days, RH-75%) of the same molecule?
Its Relevant substance is 0.36%.

What about the Character ([2]; 10 days, RH-92.5%) of the same molecule?
Its Character is “light yellow”.

What about the Crystal form ([2]; 10 days, RH-92.5%) of the same molecule?
The Crystal form was “the same”.

What about the Moisture content ([2]; 10 days, RH-92.5%) of the same molecule?
The Moisture content was 3.7%.

What about the Relevant substance ([2]; 10 days, RH-92.5%) of the same molecule?
The Relevant substance was 0.34%.

And the Character ([2]; 10 days, light)?
Its Character is “light yellow”.

What about the Crystal form ([2]; 10 days, light) of the same molecule?
The Crystal form was “the same”.

What about the Moisture content ([2]; 10 days, light) of the same molecule?
The Moisture content was 3.7%.

What about the Relevant substance ([2]; 10 days, light) of the same molecule?
Its Relevant substance is 0.35%.

And the “Change in Crystal form (XRPD pattern test)” value [2, 6]?
Its value is “no change”.

And the Change in impurities [2, 6]?
The Change in impurities was “no significant change”.

What about the “Stability of the samples (conclusion)” value ([2]; influencing factor conditions (high temperature, high moisture, light), 10 days) of the same molecule?
Its value is “relatively stable”.

What about the “Pharmacokinetic properties (conclusion)” value [3] of the same molecule?
Its value is “good pharmacokinetic properties”.

What about the AUC0-t ([3]; suspension in water) of the same molecule?
The AUC0-t was 1536 ng·h/mL.

And the AUCinf ([3]; suspension in water)?
Its AUCinf is 1591 ng·h/mL.

What about the “Cmax (maximum blood concentration)” value ([3]; suspension in water) of the same molecule?
The value was 135 ng/mL.

What about the “T1/2 (drug elimination half-life)” value ([3]; suspension in water) of the same molecule?
Its value is 4.59 h.

What about the “Tmax (time to maximum blood concentration)” value ([3]; suspension in water) of the same molecule?
Its value is 3 h.

What about the Total relevant substances ([4]; 0 day) of the same molecule?
Its Total relevant substances is 0.64%.

What about the “Change in total relevant substances (conclusion)” value ([4]; 60° C. uncovered, 5 days and 10 days) of the same molecule?
Its value is “little increase in total relevant substances”.

What about the Total relevant substances ([4]; 60° C. uncovered-5 days) of the same molecule?
The Total relevant substances was 0.66%.

And the Total relevant substances ([4]; 60° C. uncovered-10 days)?
The Total relevant substances was 0.70%.

— patent US10689359B2, “Crystals of quinazoline derivative and preparation method therefor” (Xuanzhu Pharma Co., Ltd., priority 2015, dated 2020)
